From patent US20060040122A1, “Antimicrobial drywall” (Verichem, Inc., priority 2004, published 2006)
Where a name gives a salt, the structure may show the parent alone.

What was measured:
Aspergillus niger = test: Minimum Inhibitory Concentration synergy test on fungi (Kull et al procedure); assay type: cell-based
Text: (§1) The procedure followed is adapted from and follows very closely, the procedure described in the Kull et al article. The concentrations listed in Table 1 are the Minimum Inhibitory Concentrations.
(§2) In Table 3, synergism test results are summarized for a 1:26 weight ratio of OPP:DGH against three molds, using the same test system as for Table 1
(§3) Synergism has also been shown for combinations of DGH and NaMetam (sodium methyldithiocarbamate). The Table 5 results were obtained in a manner similar to those of Table 1: […]

[1] = test system: Wild strain - Alternaria sp.; test: as above; assay type: cell-based
Text: as §1, §2, §3

Mixed inoculum = test: as above; assay type: cell-based
Text: as §1, §2, §3

Penicillium pinophillum = test: as above; assay type: cell-based
Text: as §1, §2, §3

[2] = test system: artificial bacterial consortium containing approximately equal numbers of six bacterial strains; test: Synergism dose protocol: growth inhibition of a bacterial consortium in synthetic white water (O.D. 650 nm); assay type: cell-based; settings: end point 50% inhibition of bacterial growth; pH 5.5; SI less than 1 = synergism
Method: O-phenylphenol was tested in combination with DGH. The synergism of the blends was determined using a dose protocol. The combinations were evaluated in synthetic white water with pH value of 5.5. The materials were tested against an artificial bacterial consortium containing approximately equal numbers of six bacterial strains. Although the test strains are representative of organisms present in paper mill systems, the effect is not limited to these bacteria. Two of the strains were Kiebsiella pneumoia (ATCC 13883) and Pseudomonas aeruginosa (ATCC 15442). […] Optical density (O>D>) readings at 650 nm were taken initially (t0) and after 4 hours (t4) of incubation. […]
The inhibition values can be plotted versus dosage for each active and the particular blend. […] In the examples (tables) below, the 50 values are expressed as parts per million (ppm) of active material.
The synergism index (SI) was calculated by the equation below, which was proposed by F. C. […]
QA=quantity of compound A in mixture, producing the end point
Qa=quantity of compound A1 acting alone, producing the end point
QB=quantity of compound B in mixture, producing the end point
Qb=quantity of compound B1 acting alone, producing the end point If SI is less than 1, synergism exists; if SI is greater than 1, antagonism exists; if SI is equal to 1, an additive effect exists.

[3] = test system: Aureobasidium pullulans ATCC 9348, Aspergillus niger ATCC 6275, Penicillium sp. ATCC 9849; test: ASTM Test Method D-3273 00, resistance to surface mold fungi and mildew, in adhesives; settings: similar tests, same organisms; in Titebond Solvent Free Fast Grab FRP Adhesive and Titebond Solvent Free Subfloor Adhesive
Text: In addition to experiments as described above, tests were made to compare combinations of DGH (dodecyl guanidine hydrochloride) and OPP against microorganisms known to generate what is commonly known as mildew, when used in caulking and/or adhesive materials used in bathtubs, showers and the like. ASTM (American Society for Testing Materials) Test Method D-3273 00, dealing with resistance to surface mold fungi and mildew was used. Generally, this is an accelerated test calling for a test chamber held at a relative humidity of 95 to 98% and a temperature of 32.5±1° C. (90±2° F.).
Five commercial adhesive compositions known to be susceptible to mildew growth were tested using the microorgainsms Aureobasidium pullulans ATCC 9348, Aspergillus niger ATCC 6275, Penicillium sp. ATCC 9849.
Following this test, a composition comprising 10 g of OPP and 30 g of dodecyl guanidine hydrochloride (DGH) was incorporated into samples of Titebond™ Professional Tub Surround Adhesive at concentrations of 150, 250, 500, 750, and 1000 ppm and the adhesive was tested in the same manner as in Table 2. At 28 days, all of the DGH/OPP compositions were rated at 10.

[4] = Table 5, Wild Strain - Alternaria sp.
[5] = Table 5, Penicillum pinophillum
[6] = Table 1, Minimum Inhibitory Concentration
[7] = Table 1, Minimum Inhibitory Concentration, Wild strain - Alternaria sp.
[8] = Table 3, Wild strain - Atlernaria sp.
[9] = Table 1, Minimum Inhibitory Concentration, Mixed inoculum
[10] = Table 1, Minimum Inhibitory Concentration, Penicillium pinophillum
[11] = Table 3, Penicillum pinophillum

Compound: CNC(=S)[S-].[Na+] [NaMetam, sodium methyldithiocarbamate]
- Conc of NaMetam alone (Aspergillus niger; Table 5): 31.2
- Conc of NaMetam alone [1, 4]: 125
- Conc of NaMetam alone (Mixed inoculum; Table 5, Mixed Inoculum): 250
- Conc of NaMetam alone (Penicillium pinophillum; [5]): 31.2

Compound: Oc1ccccc1-c1ccccc1 [OPP, o-phenylphenol]
- Concentration of OPP alone (Aspergillus niger; [6]): 15.6
- OPP conc (ppm) alone (Aspergillus niger; Table 3): 15.6 ppm
- Concentration of OPP alone [1, 7]: 15.6
- OPP conc (ppm) alone [1, 8]: 15.6 ppm
- Concentration of OPP alone (Mixed inoculum; [9]): 15.6
- OPP conc (ppm) alone (Mixed inoculum; Table 3, Mixed inoculum): 15.6 ppm
- Concentration of OPP alone (Penicillium pinophillum; [10]): 15.6
- OPP conc (ppm) alone (Penicillium pinophillum; [11]): 15.6 ppm

Compound: CCCCCCCCCCCCNC(=N)N [DGH, Dodecyl guanidine hydrochloride]
- Concentration of DGH alone (Aspergillus niger; [6]): 62.5
- DGH conc (ppm) alone (Aspergillus niger; Table 3): 62.5 ppm
- Conc. Of DGH alone (Aspergillus niger; Table 5): 62.5
- Concentration of DGH alone [1, 7]: 125
- DGH conc (ppm) alone [1, 8]: 125 ppm
- Conc. Of DGH alone [1, 4]: 62.5
- Concentration of DGH alone (Mixed inoculum; [9]): 125
- DGH conc (ppm) alone (Mixed inoculum; Table 3, Mixed inoculum): 125 ppm
- Conc. Of DGH alone (Mixed inoculum; Table 5, Mixed Inoculum): 62.5
- Concentration of DGH alone (Penicillium pinophillum; [10]): 62.5
- DGH conc (ppm) alone (Penicillium pinophillum; [11]): 62.5 ppm
- Conc. Of DGH alone (Penicillium pinophillum; [5]): 62.5
- Synergy Index [2]: 1.00

Compound: dodecyl guanidine acetate [DGA]
- mildew inhibition [3]: effective mildew inhibitors

Compound: [Na+].[O-]c1ccccc1-c1ccccc1 [NaOPP, sodium orthophenylphenate]
- Synergy Index [2]: 1.00
